# Results from patent publication US7256201B2, “Selective estrogen receptor-β ligands” (AstraZeneca AB, priority 2000, dated 2007).
# What was measured:
# βER = molecular target: T1, βER (Homo sapiens, UniProt Q92731); assay: Cell-based assay for ER transcriptional activity (ERE β-gal reporter), βER-transfected 293 cells; settings: for EC50 / ERE β-ER Max: 293 cells transfected with βER and ERE reporter; for ERE β-ER Max: maximal response, unit assumed; for ERE Selectivity: ratio α-ER EC50 / β-ER EC50
# T1 construct: expressed in transfected cells; host or cells: 293 cells (Human Embryonic Kidney, ATCC CRL-1573)
# Experimental: (§1) ERs are ligand-dependent transcription factors that bind the promoter regions of genes at a consensus DNA sequence called the estrogen responsive element (ERE). The ER agonist or antagonist activity of a drug was determined by measuring the amount of reporter enzyme activity expressed from a plasmid under the control of an estrogen-responsive element when cells transiently transfected with ER and the reporter plasmid were exposed to drug. These experiments were conducted according to the following methods.
# (§2) Estrogen Receptors alpha (αER, Gen Bank accession #M12674), and beta (βER, Gen Bank #X99101 were cloned into the expression vector pSG5 (Stratagene). A trimer of the vitellogenin-gene estrogen response element (vitERE) was synthesized as an oligonucleotide and attached to a beta-globin basal promoter in a construct named pERE3 gal. This response element and promoter were removed from pERE3 gal by digestion with the endonucleases SpeI (filled with Klenow fragment) and HindIII. This blunt/Hind III fragment was cloned into the β-galactosidase (β-gal) enhancer reporter plasmid (pBGALenh, Stratagene). αER and βER plasmids were purified using a the Endo Free Maxi Kit (Qiagen), and the DNA concentration and purity (A260/280 ratio) were determined spectrophotometrically (Pharmacia). Only DNA with A260/280 ratio of 1.8 and a concentration of >1 ug/uL was used for transfections.
# (§3) All Transfections are performed in 293 cells (Human Embryonic Kidney cells ATCC #CRL-1573). Cells are grown in DMEM supplemented with 10% FBS, glutamine, sodium pyruvate and penicilin/streptomycin. Cells are grown to 70% confluency and split 1:4.
# (§4) • 1. 293 cells are split the night before onto collagen I-coated 150 mm tissue-culture plates (Biocoat, Becton Dickinson #354551) at a density of 60-70% in DMEM Mediatech 17-205-CV) 10% charcoal-stripped FBS (biocell #6201-31). Approximately 1×10^7 cells/plate will yield 70% confluency. • 2. The next morning, 1 hour prior to transfection, the media is changed to fresh DMEM 10% FBS stripped and supplements. • 3. Transfections are performed using the Profection Kit (Promega #E1200). This kit is based on the calcium-phosphate-mediated transfection technique. Reagents are added in sterile polystyrene tubes in the following order:
# (§5) Solution A • 15 μg αER or βER • 45 μg Reporter (pBGALenh or ERE3) • 1.5 mL Sterile Water • 186 μL CaCl2 • *Mix gently
# (§6) Solution B • 1.5 mL 2× Hank's Buffered Salt Solution • 4. Using a vortex set on low, add solution A to solution B dropwise. The resulting solution should become milky in color. It is important to achieve thorough mixing. The solution is allowed to settle for 30 minutes, then vortexed before adding the solution to cells. • 5. Add the mixture to 150 mm plates dropwise. Mix well by rocking plates back and forth and side to side gently. After an hour, a very fine precipitate should be seen floating on and above cells under 20× magnification. If this precipitate is not observed, the transfection will not be effective. Incubate the cells for 12 hours. Receptor Stimulation: • 1. The day after transfection, cells are washed 2× with calcium- and magnesium-free Mg free PBS containing 1 mM EGTA (pH 7.6). Cells are trypsinized for 2 min with 3 mL of trypsin-EDTA. Trypsin is neutralized with DMEM 10% FCS. Cells are pelleted at 1000×g for 5 min. The cell pellet is then resuspended in 5 mL DMEM plus 2% phenol-red-free FCS supplemented with glutamine, pyruvate, and Penn/Strep. • 2. 50 μl of the resulting cell suspension is plated into each well of 96-well tissue culture dishes (Biocoat B&D #354407) using a multi-channel pipettor. The dishes have been previously loaded with 50 μL of DMSO-solubilized test compounds at twice the test concentration in DMEM. Data reported are either n=4 wells (single poke) and n=2 wells (9-point concentration-response curves). • 3. Cells are incubated overnight at 37° C. in the selected compounds. Reporter Assay: • 1. […]
# αER = molecular target: T2, αER (Homo sapiens, UniProt P03372); assay: Cell-based assay for ER transcriptional activity (ERE β-gal reporter), αER-transfected 293 cells; settings: 293 cells transfected with αER and ERE reporter; for ERE α-ER Max: maximal response, unit assumed; for EC50: read-out: ERE α-ER EC50
# T2 construct: expressed in transfected cells; host or cells: 293 cells (Human Embryonic Kidney, ATCC CRL-1573)
# T2 sequence (P03372 1-595): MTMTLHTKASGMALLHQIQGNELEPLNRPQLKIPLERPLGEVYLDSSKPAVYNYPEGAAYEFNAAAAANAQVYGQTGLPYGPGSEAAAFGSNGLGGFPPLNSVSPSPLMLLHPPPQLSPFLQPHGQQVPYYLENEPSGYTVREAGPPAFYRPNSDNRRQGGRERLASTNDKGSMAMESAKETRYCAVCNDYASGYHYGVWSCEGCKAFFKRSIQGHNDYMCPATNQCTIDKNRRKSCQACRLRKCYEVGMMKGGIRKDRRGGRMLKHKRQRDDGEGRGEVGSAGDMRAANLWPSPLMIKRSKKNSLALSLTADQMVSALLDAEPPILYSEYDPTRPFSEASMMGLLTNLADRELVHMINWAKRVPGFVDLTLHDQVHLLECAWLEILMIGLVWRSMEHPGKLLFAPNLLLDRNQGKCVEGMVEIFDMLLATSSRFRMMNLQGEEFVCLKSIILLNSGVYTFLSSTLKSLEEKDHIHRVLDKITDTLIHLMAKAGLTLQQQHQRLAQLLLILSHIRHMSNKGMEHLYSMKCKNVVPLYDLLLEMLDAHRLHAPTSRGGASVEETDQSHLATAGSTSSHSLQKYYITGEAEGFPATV
# Experimental: as §1, §2, §3, §4, §5, §6
# human recombinant ERβ = molecular target: T3, human recombinant ERβ (Homo sapiens, UniProt Q92731); assay: Fluorescence polarization estrogen receptor (ERFP) binding assay, ERβ; settings: for Ki: competition with Fluormone ES2, IC50 converted to Ki by Kenakin formula, read-out: FP β-ER Ki; for FP Selectivity: ratio α-ER Ki / β-ER Ki
# T3 construct: purchased PanVera (Madison, Wis.)
# Experimental: (§7) A homogeneous mix-and-measure estrogen receptor (ER) binding assay which utilizes fluorescence polarization (FP) technology is used to identify compounds with affinity for the estrogen receptor. Purchased from PanVera (Madison, Wis.), assay reagents include purified human recombinant ERα, human recombinant ERβ, ES2 screening buffer (100 mM potassium phosphate, pH 7.4, 100 μg/mL bovine gamma globulin), and Fluormone™ ES2.
# (§8) For competition binding experiments, dilutions of test compounds are prepared at 2× the final assay concentration in 0.2% DMSO in ES2 Screening buffer on TECAN Genosys, and 25 μL compound/well is dispensed into black Costar ½ volume 96-well plates. Dependent upon a lot specific Kd determination, 10-40 nM ERα or 10-40 nM ERβ and 1 nM Fluormone ES2 are then added to these plates in a final assay volume of 50 μL/well. Plates are gently shaken for at least 5 minutes to mix and incubated for at least 1 hr 45 minutes to achieve equilibrium. (Reaction mixtures are stable for up to 5 hours). After centrifugation to remove air bubbles, plates are read on an LJL Analyst or Acquest equipped with Criterion software at the following settings: Fluorescence Polarization Mode; Static Polarizer on Excitation Side; Dynamic Polarizer on Emission Side; Excitation λ=485×/−5 10 nm; Emission λ=520+/−12.5 nm.
# (§9) Polarized fluorescence intensity values are collected and subsequently converted electronically to millipolarization (mp) values. Following data reduction and normalization with Excel and/or Prism software, % Ctrl values at the various test concentrations are used to obtain IC50 values via non-linear regression analysis of a four-parameter logistic equation.
# (§10) Because ligand depletion is a consideration in this assay (˜40-60% input ES2 is bound in the assay), IC50 values are converted to Ki values through application of the Kenakin formula, as outlined in the reference below, rather than via the more routinely-used Cheng-Prusoff formula.
# human recombinant ERα = molecular target: T4, human recombinant ERα (Homo sapiens, UniProt P03372); assay: Fluorescence polarization estrogen receptor (ERFP) binding assay, ERα; settings: competition with Fluormone ES2; IC50 converted to Ki by Kenakin formula; read-out: FP α-ER Ki
# T4 construct: purchased PanVera (Madison, Wis.)
# T4 sequence (P03372 1-595): T2 sequence (P03372 1-595)
# Experimental: as §7, §8, §9, §10
# T1 sequence (Q92731 54-530 limits assumed): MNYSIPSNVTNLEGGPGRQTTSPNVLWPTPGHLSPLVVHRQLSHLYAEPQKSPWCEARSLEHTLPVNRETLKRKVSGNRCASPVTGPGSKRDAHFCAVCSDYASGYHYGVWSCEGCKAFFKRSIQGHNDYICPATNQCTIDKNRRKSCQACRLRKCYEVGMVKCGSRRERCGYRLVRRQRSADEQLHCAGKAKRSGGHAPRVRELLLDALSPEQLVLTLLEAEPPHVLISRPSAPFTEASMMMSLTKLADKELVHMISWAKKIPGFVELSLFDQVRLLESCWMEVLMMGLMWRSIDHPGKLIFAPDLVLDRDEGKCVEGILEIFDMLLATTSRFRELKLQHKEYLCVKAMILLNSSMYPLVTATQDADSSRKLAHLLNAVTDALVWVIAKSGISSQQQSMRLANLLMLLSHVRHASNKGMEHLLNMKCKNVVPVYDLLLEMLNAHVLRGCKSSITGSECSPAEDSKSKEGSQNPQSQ
# T3 sequence (Q92731 whole entry): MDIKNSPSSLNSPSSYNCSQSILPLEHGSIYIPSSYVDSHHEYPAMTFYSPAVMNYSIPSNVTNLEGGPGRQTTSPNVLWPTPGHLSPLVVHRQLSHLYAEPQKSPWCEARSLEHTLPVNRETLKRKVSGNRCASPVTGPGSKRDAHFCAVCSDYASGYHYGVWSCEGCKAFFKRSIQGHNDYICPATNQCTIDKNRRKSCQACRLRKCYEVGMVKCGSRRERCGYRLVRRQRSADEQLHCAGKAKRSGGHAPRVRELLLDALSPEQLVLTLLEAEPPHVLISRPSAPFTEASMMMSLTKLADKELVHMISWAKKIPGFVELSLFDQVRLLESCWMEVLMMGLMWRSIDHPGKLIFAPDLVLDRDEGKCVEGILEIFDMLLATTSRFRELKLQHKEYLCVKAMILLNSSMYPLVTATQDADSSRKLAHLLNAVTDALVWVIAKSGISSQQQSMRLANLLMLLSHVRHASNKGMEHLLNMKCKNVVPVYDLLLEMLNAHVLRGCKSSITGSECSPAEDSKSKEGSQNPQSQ
Compound,EC50 (βER) [nM],ERE β-ER Max (βER) [%],ERE Selectivity (βER),ERE α-ER Max (αER) [%],EC50 (αER) [nM],Ki (human recombinant ERβ) [nM],FP Selectivity (human recombinant ERβ),Ki (human recombinant ERα) [nM]
6-Hydroxy-2-(4-hydroxyphenyl)-1-phenylisoindoline and 5-hydroxy-2-(4-hydroxyphenyl)-1-phenylisoindoline [Example 27],34,90,0.2,54,6.8,190,0.9,170
"Oc1ccc(N2CCc3cc(O)ccc3C2)c(Cl)c1 [Example 2, 2-(2-Chloro-4hydroxyphenyl)-1,2,3,4-tetrahydroisoquinoline-6-ol]",–,–,–,–,–,18,2.7,48
"COc1ccc([N+](=O)[O-])cc1N1CCc2cc(O)ccc2C1 [Example 4, 2-(2-Methoxy-5-nitrophenyl)-1,2,3,4-tetrahydroisoquinolin-6-ol]",–,–,–,–,–,459,1.4,655
"O=[N+]([O-])c1cc(O)ccc1N1CCc2cc(O)ccc2C1 [Example 5, 2-(4-Hydroxy-2-nitrophenyl)-1,2,3,4-tetrahydroisoquinolin-6-ol]",–,–,–,–,–,13,4.8,62
"Oc1ccc(N2CCc3cc(O)ccc3C2c2ccc(C(F)(F)F)cc2)cc1 (centres unmarked) [Example 9, 2-(4-Hydroxyphenyl)-1-(4-trifluoromethylphenyl)-1,2,3,4-tetrahydroisoquinolin-6-ol]",–,–,–,–,–,4.9,1.6,8
"Oc1ccc(N2CCc3cc(O)ccc3C2c2ccc(Cl)cc2Cl)cc1 (centres unmarked) [Example 10, 1-(2,4-Dichlorophenyl)-2-(4-hydroxyphenyl)-1,2,3,4-tetrahydroisoquinolin-6-ol]",–,44,–,95,–,7,1.6,11
"Oc1ccc(N2CCc3cc(O)ccc3C2Cc2ccccc2)cc1 (centres unmarked) [Example 16, 1-Benzyl-2-(4-hydroxy-phenyl)-1,2,3,4-tetrahydro-isoquinolin-6-ol]",–,–,–,–,–,18,0.8,15
"Cc1ccc(N2CCc3cc(O)ccc3C2c2cccs2)cc1O (centres unmarked) [Example 22, 2-(3-Hydroxy-4-methyl-phenyl)-1-thiophen-2-yl-1,2,3,4-tetrahydro-isoquinolin-6-ol]",–,–,–,–,–,3.5,3.5,12
"O=C(c1ccc(O)cc1)N1CCc2cc(O)ccc2C1 [Example 23, (6-Hydroxy-3,4-dihydro-1H-isoquinolin-2-yl)-(4-hydroxy-phenyl)-methanone]",–,–,–,–,–,229,2.9,660
"O=C(c1ccc(O)cc1)N1CCc2ccc(O)cc2C1 [Example 24, (7-Hydroxy-3,4-dihydro-1H-isoquinolin-2-yl)-(4-hydroxy-phenyl)-methanone]",–,–,–,–,–,215,3.1,660

# Second part, the compound after the results:
EC50 (βER) [nM],ERE β-ER Max (βER) [%],ERE Selectivity (βER),ERE α-ER Max (αER) [%],EC50 (αER) [nM],Ki (human recombinant ERβ) [nM],FP Selectivity (human recombinant ERβ),Ki (human recombinant ERα) [nM],Compound
–,–,–,–,–,375,2.7,1000,"Oc1ccc(N2CCc3cc(O)ccc3C2)cc1 [Example 1, 2-(4-Hydroxyphenyl)-1,2,3,4-tetrahydroisoquinoline-6-ol]"
35.7,103,0.8,93,28.2,8,7.4,60,"Cc1cc(O)ccc1N1CCc2cc(O)ccc2C1 [Example 3, 2-(4-Hydroxy-2-methylphenyl)-1,2,3,4-tetrahydroisoquinolin-6-ol]"
7.6,105,0.1,100,0.6,10,0.9,10,"Oc1ccc(N2CCc3cc(O)ccc3C2c2ccccc2)cc1 (centres unmarked) [Example 6, 2-(4Hydroxyphenyl)-1-phenyl-1,2,3,4-tetrahydroisoquinolin-6-ol]"
–,–,–,–,–,35,1.8,62,"Cc1ccc(C2c3ccc(O)cc3CCN2c2ccc(O)cc2)c(C)c1 (centres unmarked) [Example 7, 1-(2,4-Dimethylphenyl)-2-(4-hydroxyphenyl)-1,2,3,4-tetrahydroisoquinolin-6-ol]"
–,–,–,–,–,39,0.5,18,"CSc1ccc(C2c3ccc(O)cc3CCN2c2ccc(O)cc2)cc1 (centres unmarked) [Example 8, 2-(4-Hydroxyphenyl)-1-(4-methylsulfanylphenyl)-1,2,3,4-tetrahydroisoquinolin-6-ol]"
–,–,–,–,–,9,1.1,10,"CCc1ccc(C2c3ccc(O)cc3CCN2c2ccc(O)cc2)cc1 (centres unmarked) [Example 11, 1-(4-Ethylphenyl)-2-(4-hydroxyphenyl)-1,2,3,4-tetrahydroisoquinolin-6-ol]"
